Series [1] concerns Mycobacterium tuberculosis. The settings on record: relative to clofazimine; cited from earlier work.
The subject of another series is H37Rv. The experiment in a line: In vivo testing: mice infected intravenously with H37Rv, lung tissue CFU counts. On the set-up: species or system Male BALB/c mice. The conditions noted are these: thirty days postinfection; for Log CFU (TBI treated): 20 mg/kg, gavage 5 times weekly, lung tissue CFU; for log reduction at 20 mg/kg: Mycobacterium tuberculosis, H37RV, iv, 720 h, versus untreated control, lung tissue, read-out: Log CFU Reduction (TBI treated). Here is the method:
Male BALB/c mice (18˜20 g) were infected intravenously with 0.2 ml portions containing 1×10^5 CFU of H37Rv. One day after the infection, four mice were sacrificed and the numbers of CFU in the spleens and lungs were determined. Organs were removed and homogenized in Middlebrook 7H9 broth. To enumerate CFU, appropriate dilutions of the homogenates were plated onto Middlebrook 7H10 agar and colonies were counted after 3 to 4 weeks of incubation at 37° C. The remaining mice were allocated either to untreated groups or to various drug treated groups (six mice per group). The dose of every test compound was 20 mg/kg. The positive control groups were treated by isoniazid and clofazimine. The test compounds and clofazimine were administered by gavage 5 times weekly. Untreated mice were administered by gavage with CMC. Thirty days postinfection, both untreated and treated mice were sacrificed and lung tissue CFU counts were determined. The significance of the CFU count and organ weight difference was assessed by a two-tailed Student t test. P≦0.01 was considered significant.

Series [2] concerns Mycobacterium tuberculosis H37Rv strains. As to the kind of experiment: In vitro assay for antimicrobial susceptibility (microplate Alamar blue MIC). The conditions noted are these: Mycobacterium tuberculosis, H37RV, in vitro, Mycobacterium tuberculosis H37Rv strains; read-out: MIC (μg/mL) against H37Rv. The series is classed as cell-based.
For series [3], the system named is tuberculosis. The settings on record: guinea pig model; cited from earlier work.
The subject of series [4] is tuberculosis. The conditions noted are these: mice; cited from earlier work.
Series [5] deals with tuberculosis. The settings on record: hamsters; cited from earlier work.
For series [6] the following is noted: in vivo; cited from earlier work.
The test system of series [7] is tuberculosis. The conditions noted are these: monkey model; cited from earlier work.

Each structure is given as a SMILES string. In brackets after ≈: the same amount, converted by molar mass. Where two headings read alike, the source gives them in different places.

With `CCN(CC)CCC/N=c1\cc2n(-c3ccc(Cl)c(Cl)c3)c3ccccc3nc-2cc1Nc1ccc(Cl)c(Cl)c1` [B4154], the in vitro activity entry in series [1] is given as “improved in vitro activity”.

For the molecule `FC(F)(F)Oc1ccc(-n2c3c/c(=N\C4CCOCC4)c(Nc4cccnc4)cc-3nc3ccccc32)cc1` [TBI-161, 5-(4-Trifluoromethoxyphenyl)-3-(4-tetrahydropyranyl)imino-2-(3-pyridyl)amino-3,5-dihydrophenazine], in the series on H37Rv, the “Log CFU (TBI treated)” value is 6.05 and the log reduction at 20 mg/kg stood at 2.77. Moreover, the MIC in series [2] was determined as 0.03 µg/mL (≈ 0.0564 µM).

As for `COc1ncccc1Nc1cc2nc3ccccc3n(-c3ccc(OC(F)(F)F)cc3)c-2c/c1=N\C1CCC(OC)CC1` (stereo not drawn) [TBI-166, 5-(4-Trifluoromethoxyphenyl)-(4-methoxycyclohexyl)imino-2-(2-methoxy-3-pyridyl)amino-3,5-dihydrophenazine], in the series on H37Rv, the “Log CFU (TBI treated)” value came out at 4.66 and the log reduction at 20 mg/kg was determined as 3.87. For the same molecule, the MIC in [2] came to 0.016 µg/mL (≈ 0.0271 µM).

As to `CC(C)/N=c1\cc2n(-c3ccc(Cl)cc3)c3ccccc3nc-2cc1Nc1cccnc1` [TBI-416, 5-(4-chlorophenyl)-3-(1-methylethyl)imino-2-(3-pyridyl)amino-3,5-dihydrophenazine], in the series with H37Rv, the “Log CFU (TBI treated)” value was 3.83 and the log reduction at 20 mg/kg turned out to be 4.7. Further, in [2], the MIC stood at 0.03 µg/mL (≈ 0.0682 µM).

For `Clc1ccc(-n2c3c/c(=N\C4CCCCC4)c(Nc4cccnc4)cc-3nc3ccccc32)cc1` [TBI-422, 5-(4-Chlorophenyl)-3-cyclohexylimino-2-(3-pyridyl)amino-3,5-dihydrophenazine], the melting point was in the range of 194 to 196 °C. The MIC in series [2] is 0.06 µg/mL (≈ 0.125 µM).

In turn, `CN1CCC(/N=c2\cc3n(-c4ccc(Cl)cc4)c4ccccc4nc-3cc2Nc2cccnc2)CC1` [TBI-427, 5-(4-Chlorophenyl)-3-(N-methyl-4-piperidyl)imino-2-(3-pyridyl)amino-3,5-dihydrophenazine] yielded a melting point of 198 to 200 °C. For the same molecule, the MIC in [2] was determined as 0.125 µg/mL (≈ 0.253 µM).

Molecule `CN1CCC(C/N=c2\cc3n(-c4ccc(Cl)cc4)c4ccccc4nc-3cc2Nc2cccnc2)CC1` [TBI-428, 5-(4-Chlorophenyl)-3-(N-methyl-4-piperidylmethyl)imino-2-(3-pyridyl)amino-3,5-dihydrophenazine] gave a melting point of 188 to 190 °C. The MIC in series [2] amounted to 0.25 µg/mL (≈ 0.491 µM).

As for `Clc1ccc(-n2c3c/c(=N\C4CCOCC4)c(Nc4cccnc4)cc-3nc3ccccc32)cc1` [TBI-434, 5-(4-Chlorophenyl)-3-(4-tetrahydropyranyl)imino-2-(3-pyridyl)amino-3,5-dihydrophenazine], the melting point was in the range of 215 to 217 °C. The MIC in [2] turned out to be 0.03 µg/mL (≈ 0.0622 µM).

For `CC(C)CN1CCC(/N=c2\cc3n(-c4ccc(Cl)cc4)c4ccccc4nc-3cc2Nc2cccnc2)CC1` [TBI-435, 5-(4-Chlorophenyl)-3-(N-isobutyl-4-piperidyl)imino-2-(3-pyridyl)amino-3,5-dihydrophenazine], the melting point was in the range of 209 to 210 °C. Besides, the MIC in [2] worked out at 0.25 µg/mL (≈ 0.465 µM).

Molecule `COC1CCC(/N=c2\cc3n(-c4ccc(Cl)cc4)c4ccccc4nc-3cc2Nc2cccnc2)CC1` (stereo not drawn) [TBI-436, 5-(4-Chlorophenyl)-3-(4-methoxycyclohexyl)imino-2-(3-pyridyl)amino-3,5-dihydrophenazine] came in with a melting point of 228 to 230 °C. Besides, the MIC in series [2] was determined as 0.03 µg/mL (≈ 0.0588 µM).

In turn, `Clc1ccc(-n2c3c/c(=N\C4CCN(C5CCCC5)CC4)c(Nc4cccnc4)cc-3nc3ccccc32)cc1` [TBI-437, 5-(4-Chlorophenyl)-3-(N-cyclopentyl-4-piperidyl)imino-2-(3-pyridyl)amino-3,5-dihydrophenazine] came in with a melting point of 170 to 172 °C. Besides, in series [2], the MIC was determined as 0.125 µg/mL (≈ 0.228 µM).

Regarding `COc1ncccc1Nc1cc2nc3ccccc3n(-c3ccc(Cl)cc3)c-2c/c1=N\C1CCOCC1` [TBI-443, 5-(4-chlorophenyl)-3-(4-tetrahydropyranyl)imino-2-(2-methoxy-3-pyridyl)amino-3,5-dihydrophenazine], in the series with H37Rv, the “Log CFU (TBI treated)” value came out at 5.13 and the log reduction at 20 mg/kg came out at 3.4. Moreover, the MIC in series [2] is 0.016 µg/mL (≈ 0.0312 µM).

Consider `COc1ncccc1Nc1cc2nc3ccccc3n(-c3ccc(Cl)cc3)c-2c/c1=N\C1CCC(OC)CC1` (stereo not drawn) [TBI-444, 5-(4-Chlorophenyl)-3-(4-methoxycyclohexyl)imino-2-(2-methoxy-3-pyridyl)amino-3,5-dihydrophenazine], for which, in the series with H37Rv, the “Log CFU (TBI treated)” value came to 4.71 and the log reduction at 20 mg/kg was 3.82. Besides, the MIC in series [2] is 0.016 µg/mL (≈ 0.0296 µM).

Consider `Cc1ccc(Nc2cc3nc4ccccc4n(-c4ccc(Cl)cc4)c-3c/c2=N\C2CCOCC2)cn1` [TBI-449, 5-(4-Chlorophenyl)-3-(4-tetrahydropyranyl)imino-2-(6-methyl-3-pyridyl)amino-3,5-dihydrophenazine], for which, in the series on H37Rv, the “Log CFU (TBI treated)” value is given as 3.87 and the log reduction at 20 mg/kg was 4.66. Further, the MIC in series [2] is 0.03 µg/mL (≈ 0.0605 µM).

As for `COC1CCC(/N=c2\cc3n(-c4ccc(Cl)cc4)c4ccccc4nc-3cc2Nc2ccc(C)nc2)CC1` (stereo not drawn) [TBI-450, 5-(4-Chlorophenyl)-3-(4-methoxycyclohexyl)imino-2-(6-methyl-3-pyridyl)amino-3,5-dihydrophenazine], in the series with H37Rv, the “Log CFU (TBI treated)” value stood at 3.64 and the log reduction at 20 mg/kg stood at 4.89. The MIC in series [2] was found to be 0.016 µg/mL (≈ 0.0305 µM).

For the molecule `COc1ncccc1Nc1cc2nc3ccccc3n(-c3ccc(Br)cc3)c-2c/c1=N\C1CC1` [TBI-519, 5-(4-Bromophenyl)-3-cyclopropylimino-2-(2-methoxy-3-pyridyl)amino-3,5-dihydrophenazine], the melting point was in the range of 217 to 218 °C. The MIC in series [2] is 0.015 µg/mL (≈ 0.0293 µM).

`CC(C)/N=c1\cc2n(-c3cccc(F)c3)c3ccccc3nc-2cc1Nc1cccnc1` [TBI-522, 5-(3-Fluorophenyl)-3-(1-methylethyl)imino-2-(3-pyridyl)amino-3,5-dihydrophenazine] returned a melting point of 164 to 166 °C. Moreover, the MIC in series [2] stood at 0.062 µg/mL (≈ 0.146 µM).

Regarding `CC(C)/N=c1\cc2n(-c3ccc(C(F)(F)F)cc3)c3ccccc3nc-2cc1Nc1cccnc1` [TBI-678, 5-(4-Trifluoromethylphenyl)-3-(1-methylethyl)imino-2-(3-pyridyl)amino-3,5-dihydrophenazine], in the series with H37Rv, the “Log CFU (TBI treated)” value is listed as 5.82 and the log reduction at 20 mg/kg turned out to be 3. For the same molecule, in series [2], the MIC was 0.03 µg/mL (≈ 0.0634 µM).

As to `COC1CCC(/N=c2\cc3n(-c4ccc(C(F)(F)F)cc4)c4ccccc4nc-3cc2Nc2cccnc2)CC1` (stereo not drawn) [TBI-688, 5-(4-Trifluoromethylphenyl)-3-(4-methoxycyclohexyl)imino-2-(3-pyridyl)amino-3,5-dihydrophenazine], in the series with H37Rv, the “Log CFU (TBI treated)” value is 5.99 and the log reduction at 20 mg/kg was 2.83. In addition, the MIC in series [2] came to 0.03 µg/mL (≈ 0.0552 µM).

`COc1ncccc1Nc1cc2nc3ccccc3n(-c3ccc(F)cc3)c-2c/c1=N\C1CCC(OC)CC1` (stereo not drawn) [TBI-1002, 5-(4-Fluorophenyl)-3-(4-methoxycyclohexyl)imino-2-(2-methoxy-3-pyridyl)amino-3,5-dihydrophenazine]: in the series on H37Rv, the “Log CFU (TBI treated)” value worked out at 4.85 and the log reduction at 20 mg/kg turned out to be 3.68. Moreover, the MIC in series [2] worked out at 0.016 µg/mL (≈ 0.0306 µM).

For the molecule `COc1ncccc1Nc1cc2nc3ccccc3n(-c3ccc(F)cc3)c-2c/c1=N\C1CC1` [TBI-1010, 5-(4-Fluorophenyl)-3-cyclopropylimino-2-(2-methoxy-3-pyridyl)amino-3,5-dihydrophenazine], in the series on H37Rv, the “Log CFU (TBI treated)” value is 4.86 and the log reduction at 20 mg/kg was found to be 3.67. In addition, the MIC in series [2] came out at 0.011 µg/mL (≈ 0.0244 µM).

For `CC(C)/N=c1\cc2n(-c3ccc(Cl)cc3)c3ccccc3nc-2cc1Nc1ccc(Cl)cc1` [clofazimine], the efficacy entry in the series with tuberculosis [3] and in the series with tuberculosis [7] was “failed to show efficacy” each time. Further, the “in vivo anti-TB activity” value in the series with tuberculosis [4] and in the series with tuberculosis [5] was “demonstrated in vivo anti-TB activity” each time. For the same molecule, the half-life in [6] is reported as 70 days.
